Data reported in patent KR20050021629A, “신규한 벤조플루오렌 디온계 화합물” (학교법인 이화학당, priority 2003, dated 2005).
Values after ≈ are worked out from the molar mass of the structure shown. Like-named read-outs stand apart in the source and are kept apart here.

Tests used:
[1] = tested on: human ovarian cancer cell line (SK-OV-3) (인간 난소암 세포주(SK-OV-3)); details: literature (Y. S. Kim et al. 2003); cited from earlier work
[2] = tested on: human ovarian cancer cell line SK-OV-3 (인간 난소암 세포주 (SK-OV-3)); test: SRB cytotoxicity test, human ovarian cancer cell line SK-OV-3; format: cell-based
[3] = tested on: human central nervous system cancer cell line XF498 (인간 중추 신경계암 세포주 (XF498)); test: SRB cytotoxicity test, human central nervous system cancer cell line XF498; format: cell-based
[4] = tested on: human colon cancer cell line HCT15 (인간 결장암 세포주 (HCT15)); test: SRB cytotoxicity test, human colon cancer cell line HCT15; format: cell-based
[5] = tested on: human melanoma cell line SK-MEL-2 (인간 흑색종암 세포주 (SK-MEL-2)); test: SRB cytotoxicity test, human melanoma cell line SK-MEL-2; format: cell-based
[6] = tested on: human lung cancer cell line A549 (인간 폐암 세포주 (A549)); test: SRB cytotoxicity test, human lung cancer cell line A549; format: cell-based
[7] = SK-OV-3, SRB assay, 48 h incubation, read-out: ED50 (the source's name)
[8] = XF498, XF 498, SRB assay, 48 h incubation, read-out: ED50 (the source's name)
[9] = HCT 15, SRB assay, 48 h incubation, read-out: ED50 (the source's name)
[10] = SK-MEL-2, SRB assay, 48 h incubation, read-out: ED50 (the source's name)
[11] = A549, SRB assay, 48 h incubation, read-out: ED50 (the source's name)

| Compound | anticancer effect compared with doxorubicin [1] | IC50 ([2]; SK-OV-3, 48 h, read-out: ED50) [mg/L] | IC50 ([3]; XF498, 48 h, read-out: ED50) [mg/L] | IC50 ([4]; HCT-15, 48 h, read-out: ED50) [mg/L] | IC50 ([5]; SK-MEL-2, 48 h, read-out: ED50) [mg/L] | IC50 ([6]; A549, 48 h, read-out: ED50) [mg/L] | IC50 [2, 7] [mg/L] | IC50 [3, 8] [mg/L] | IC50 [4, 9] [mg/L] | IC50 [5, 10] [mg/L] | IC50 [6, 11] [mg/L] |
| --- | --- | --- | --- | --- | --- | --- | --- | --- | --- | --- | --- |
| 2-메틸-4a,10,11-트리아자-벤조[3,2-a]플루오렌-5,6-디온 | 독소루비신보다 항암효과가 우수함 | – | – | – | – | – | – | – | – | – | – |
| COc1cccc2c1C(=O)c1c(O)c3c(c(O)c1C2=O)C[C@@](O)(C(=O)CO)C[C@@H]3O[C@H]1C[C@H](N)[C@H](O)[C@H](C)O1 [독소루비신, reference compound] | – | 0.21 (≈ 0.386 µM) | 0.187 (≈ 0.344 µM) | 0.19 (≈ 0.35 µM) | 0.11 (≈ 0.202 µM) | 0.093 (≈ 0.171 µM) | – | – | – | – | – |
| Cc1cccn2c3c(nc12)-c1ncccc1C(=O)C3=O [실시예 1, 10-메틸-1,6b,11-트리아자-벤조[3,2-a]플루오렌-5,6-디온] | – | – | – | – | – | – | 0.073 (≈ 0.277 µM) | 0.033 (≈ 0.125 µM) | 0.044 (≈ 0.167 µM) | 0.11 (≈ 0.418 µM) | 0.054 (≈ 0.205 µM) |
| Cc1cccc2nc3c(n12)C(=O)C(=O)c1cccnc1-3 [실시예 2, 7-메틸-1,6b,11-트리아자-벤조[3,2-a]플루오렌-5,6-디온] | – | – | – | – | – | – | 1.04 (≈ 3.95 µM) | 0.2 (≈ 0.76 µM) | 0.71 (≈ 2.7 µM) | 1.08 (≈ 4.1 µM) | 0.23 (≈ 0.874 µM) |
| O=C1C(=O)c2c(nc3ccc(Cl)cn23)-c2ncccc21 [실시예 3, 8-클로로-1,6b,11-트리아자-벤조[3,2-a]플루오렌-5,6-디온] | – | – | – | – | – | – | 0.55 (≈ 1.94 µM) | 0.45 (≈ 1.59 µM) | 0.99 (≈ 3.49 µM) | 0.65 (≈ 2.29 µM) | 0.59 (≈ 2.08 µM) |
| O=C1C(=O)c2c(nc3ncccn23)-c2ncccc21 [실시예 4, 1,6b,10,11-테트라아자-벤조[a]플루오렌-5,6-디온] | – | – | – | – | – | – | 0.061 (≈ 0.244 µM) | 0.081 (≈ 0.324 µM) | 0.077 (≈ 0.308 µM) | 0.034 (≈ 0.136 µM) | 0.12 (≈ 0.48 µM) |
| O=C1C(=O)c2c(nc3cnccn23)-c2ncccc21 [실시예 5, 1,6b,9,11-테트라아자-벤조[a]플루오렌-5,6-디온] | – | – | – | – | – | – | 0.02 (≈ 0.0799 µM) | 0.03 (≈ 0.12 µM) | 0.047 (≈ 0.188 µM) | 0.032 (≈ 0.128 µM) | 0.051 (≈ 0.204 µM) |
| O=C1C(=O)c2c(nc3ccccn23)-c2cnncc21 [실시예 6, 2,3,6b,11-테트라아자-벤조[a]플루오렌-5,6-디온] | – | – | – | – | – | – | 0.2 (≈ 0.799 µM) | 0.12 (≈ 0.48 µM) | 0.1 (≈ 0.4 µM) | 0.12 (≈ 0.48 µM) | 0.022 (≈ 0.0879 µM) |
| Cc1ccc2nc3c(n2c1)C(=O)C(=O)c1cnncc1-3 [실시예 7, 8-메틸-2,3,6b,11-테트라아자-벤조[a]플루오렌-5,6-디온] | – | – | – | – | – | – | 1.01 (≈ 3.82 µM) | 1.77 (≈ 6.7 µM) | 0.92 (≈ 3.48 µM) | 1.77 (≈ 6.7 µM) | 3.54 (≈ 13.4 µM) |
| COc1cc(C2c3cc4c(cc3C(OC3OC5COC(C)OC5C(O)C3O)C3COC(=O)C23)OCO4)cc(OC)c1O (stereo not shown) [에토포시드, reference compound] | – | 1.84 (≈ 3.13 µM) | 1.43 (≈ 2.43 µM) | 0.97 (≈ 1.65 µM) | 1.37 (≈ 2.33 µM) | 0.577 (≈ 0.98 µM) | – | – | – | – | – |
